From patent US10450549B2, “Aryloxyphenoxypropionate tolerance in turfrgass species and use of AAD1 as a selectable marker” (Dow AgroSciences, LLC, priority 2004, dated 2019)
“And” between values parts separate entries of the source, which are not always exact repeats. Equal entries are not always repeated.

Legend:
AAD1 (v1) = biological target: T1, AAD1 (v1) (Sphingobium herbicidovorans, UniProt Q8KSC8); test: Colorimetric phenol detection assay of AAD1 (v1) activity (purified enzyme or E. coli extract); type: biochemical; settings: for A510, AAD1 / A510, AAD1 (10x): substrate 1 mM; for A510, AAD1: 1 μg purified AAD1 (v1) per 0.16 ml assay; for A510, AAD1 (10x): 10 μg purified AAD1 (v1) per 0.16 ml assay; for rate of product formation relative to 2,4-D / A510: 1 mM; for rate of product formation relative to 2,4-D: 27 μg crude recombinant AAD1 (v1) per assay; for A510 / % 2,4-D: Table 8; for A510: 27 μg crude recombinant AAD1 (v1) extract from E. coli; for % 2,4-D: relative to 2,4-D, crude AAD1 (v1) extract
T1 construct: made in house; host or cells: E. coli BL-21 Star (DE3), plasmid pDAB3203

[1] = system: T4 Arabidopsis homozygous for AAD1 (v3) (line AAD1.01.315.076); test: Foliar-applied auxinic herbicides on homozygous T4 AAD1 (v3) Arabidopsis, % injury 14 DAT; type: in vivo, Arabidopsis thaliana; settings: AAD1.01.315.076.T4 homozygous AAD1 plants
Experimental: (§1) The ability of AAD1 (v3) to provide resistance to other aryloxyphenoxyalkanoate auxin herbicides in transgenic Arabidopsis was determined by foliar application of various substrates described in Example 6.8. T4 generation Arabidopsis seed, homozygous for AAD1 (v3) (line AAD1.01.315.076) was stratified, and sown into selection trays much like that of Arabidopsis (Example 6.4). A transformed-control line containing PAT and the insect resistance gene Cry1F was planted in a similar manner. Seedlings were transferred to individual 3-inch pots in the greenhouse. All plants were sprayed with the use of a track sprayer set at 187 L/ha. […] All applications were formulated in 200 mM Hepes buffer (pH 7.5). Each treatment was replicated 3-4 times. Plants were evaluated at 3 and 14 days after treatment and are averaged over two experiments.

[2] = system: transformed-control line containing PAT and Cry1F; test: Foliar-applied auxinic herbicides on control (PAT/Cry1F, wildtype) Arabidopsis, % injury 14 DAT; type: in vivo, Arabidopsis thaliana; settings: PatCry1f - Control
Experimental: as §1

T1 sequence (Q8KSC8 whole entry): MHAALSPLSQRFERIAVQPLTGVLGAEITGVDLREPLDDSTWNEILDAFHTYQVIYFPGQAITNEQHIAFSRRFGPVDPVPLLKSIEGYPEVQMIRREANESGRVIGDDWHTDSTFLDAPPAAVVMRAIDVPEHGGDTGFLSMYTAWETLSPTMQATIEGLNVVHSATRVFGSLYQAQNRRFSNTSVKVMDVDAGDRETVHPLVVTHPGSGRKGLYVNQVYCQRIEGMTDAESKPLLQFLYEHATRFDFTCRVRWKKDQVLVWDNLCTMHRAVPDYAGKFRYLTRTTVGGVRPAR

Row | SMILES | A510, AAD1 (AAD1 (v1); Table 4) | A510, AAD1 (10x) (AAD1 (v1); Table 4) | A510, AAD1 (AAD1 (v1); Table 3, 15 min) | A510, AAD1 (10x) (AAD1 (v1); Table 3, 15 min) | also measured
1 | CC(Oc1ccc(Oc2ccc(C(F)(F)F)cn2)cc1)C(=O)O (racemic) [(R,S)- fluazifop] | 0.427 | 2.17 | – | – | –
2 | CC(Oc1ccc(Oc2ncc(Cl)cc2Cl)cc1)C(=O)O (racemic) [(R,S)- chlorazifop] | 0.128 | 1.584 | – | – | –
3 | O=C(O)CCCOc1ccc(Cl)cc1Cl [compound 178577] | – | – | 0.003 | 0.021 | –
4 | O=S(=O)([O-])OCCOc1ccc(Cl)cc1Cl.[Na+] [sesone] | – | – | 0.02 | 0.177 | –
5 | CC(Oc1cc(F)c(Cl)c(N)c1Cl)C(=O)O (racemic) [(R,S)-3-amino, 5-F-dichlorprop] | – | – | – | – | rate of product formation relative to 2,4-D (AAD1 (v1)): 125%; A510 (AAD1 (v1)): 0.221; % 2,4-D (AAD1 (v1)): 125%
6 | O=C(O)COc1ccc(F)cc1Cl [compound 124988] | – | – | 0.007 | 0.058 | –
7 | Nc1c(Cl)ccc(OCC(=O)O)c1Cl [compound 11263526] | – | – | 0.004 | 0.069 | –
8 | CC(Oc1ccc(Oc2nc3ccc(Cl)cc3s2)cc1)C(=O)O (racemic) [(R,S)- fenthiaprop] | 0.199 | 1.055 | – | – | –
9 | CC(Oc1ccc(Oc2ncc(C(F)(F)F)cc2Cl)cc1F)C(=O)O (centres unmarked) [compound 25646] | 0.144 | 1.69 | – | – | –
10 | CC(Oc1ccc(F)cc1Cl)C(=O)O (racemic) [(R,S)-2-chloro, 4-fluorophenoxy-proprionate] | – | – | 0.304 | 2.358 | –
11 | CC(Oc1ccc(Cl)c(N)c1Cl)C(=O)O (racemic) [(R,S)-3-aminodichlorpop] | – | – | 0.228 | 2.676 | fold better than 2,4-D as a substrate (AAD1 (v1); purified AAD1 (v1), Table 3 data, listed as 3-aminodichlorprop): ~7 fold and > 7 fold
12 | O=C(O)COc1cc(F)c(Cl)cc1Cl [5-F, 2,4-D] | – | – | – | – | rate of product formation relative to 2,4-D (AAD1 (v1)): 32%; A510 (AAD1 (v1)): 0.056; % 2,4-D (AAD1 (v1)): 32%
13 | CC(Oc1ccc(Oc2ncc(Cl)cc2F)cc1)C(=O)O (racemic) [(R,S)- clodinofop] | 0.295 | 1.98 | – | – | –
14 | O=C(O)COc1ccc(Cl)c2cccnc12 [Cloquintocet] | 0 | 0.001 | – | – | activity of purified AAD1 (v1) on substrate (AAD1 (v1); 1 mM substrate, 1 or 10 μg enzyme): no activity
15 | CCC(Oc1ccc(Cl)cc1Cl)C(N)=O (centres unmarked) [compound 192132] | – | – | 0.064 | 0.204 | –
16 | CC(C)COC(=O)COc1ccc(Cl)cc1Cl [compound 190252] | – | – | 0.008 | 0.211 | –
17 | Oc1ccc(Cl)cc1Cl [2,4-DCP] | – | – | – | – | Ave % Injury 14DAT ([1]; 50 g ae/ha foliar): 0%; Ave % Injury 14DAT ([1]; 200 g ae/ha foliar): 0%; Ave % Injury 14DAT ([1]; 800 g ae/ha foliar): 0%; Ave % Injury 14DAT ([1]; 3200 g ae/ha foliar): 0%; Ave % Injury 14DAT ([2]; 50 g ae/ha foliar): 0%; Ave % Injury 14DAT ([2]; 200 g ae/ha foliar): 0%; Ave % Injury 14DAT ([2]; 800 g ae/ha foliar): 0%; Ave % Injury 14DAT ([2]; 3200 g ae/ha foliar): 0%
